Assay results taken from PubChem BioAssay (NCI).
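All cell lines were grown in 96-well plates and treated with compound for 48 hours. TGI: total growth inhibition.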

What follows are compounds tested on LOX IMVI melanoma (assay: DTP human tumour cell line panel, 48 h).

Going from `O=c1c2ccccc2nc(-c2ccccc2)n1NC(=S)Nc1cccc(Cl)c1` to `NN/C(=N\S(=O)(=O)c1ccc(S(=O)(=O)c2ccccc2)s1)Nc1ccc(Cl)cc1`, the TGI falls from > 100 µM to 36.6 µM.

First: C(#Cc1ccccc1)SC1=C(c2ccccc2)S/C(=C(\SC#Cc2ccccc2)c2ccccc2)S1
Second: CC(C)(C)[Si](C)(C)OC[C@H](/C=C\CCCC(=O)O)NC1(c2ccccc2)c2ccccc2-c2ccccc21
The TGI of the first is higher: > 100 µM for the first, 25.5 µM for the second.

First: COC(=O)c1cc(/C=C\c2cc(OC)ccc2OC)ccc1OC
Second: COc1ccc(CNc2nc3ccccc3nc2C(=O)O)cc1
The TGI of the first is lower: 56.9 µM for the first, > 100 µM for the second.

`CCOC(=O)CC(NC(=O)c1ccc(N=NN(C)C)cc1)C(=O)OCC` (centres undefined) and `CCOC(=O)C(C/C=C/CO)N(C)C(=O)OC(C)(C)C` (centres undefined) cannot be ordered by TGI: > 100 µM for the first, > 100 µM for the second.

Compared with `CN(C)CN(C)c1nc(N(C)C)nc(N(C)CN(C)C)n1`, `CC(C)[Si](OCC1CC(C#N)OC(C)(C)O1)(C(C)C)C(C)C` (centres undefined) is 1.6-fold lower in TGI: 55.1 µM for the first, 33.7 µM for the second.

`O=c1[nH]nc(-c2ccccc2)n1-n1cnnc1` and `COc1ccc(-n2cnc3c(NC(Cc4ccccc4)C(=O)O)ncnc32)cc1` (centres undefined) cannot be ordered by TGI: > 100 µM for the first, > 100 µM for the second.

First: CCCCCCCCCCCCOP(=O)(O)OP(=O)(O)OCC1OC(n2cc(C)c(=O)[nH]c2=O)CC1O (centres undefined)
Second: CC(=O)OCC1OC(n2c(-c3ccccc3)c(N=Nc3ccc(C)cc3)c(C)c(C#N)c2=S)C(OC(C)=O)C(OC(C)=O)C1OC(C)=O (centres undefined)
The TGI of the first is higher: > 100 µM for the first, 64.1 µM for the second.

Going from `O=C1c2cc([N+](=O)[O-])sc2C(=O)c2c([N+](=O)[O-])csc21` to `Cc1ccc(S(=O)(=O)Nn2c(O)c(C#N)c(-c3ccc([N+](=O)[O-])cc3)c(C#N)c2=O)cc1`, the TGI rises from 0.269 µM to > 100 µM.

`CCOc1cc2c(cc1O)C(N)C[C@@H]1[C@@H]2CC[C@]2(C)[C@@H](O)CC[C@@H]12` (some centres undefined) and `N#C/C(=C\c1ccc2[nH]ccc2c1)C(=O)c1ccc(O)c(O)c1` cannot be ordered by TGI: > 100 µM for the first, > 100 µM for the second.

Going from `CC(C)C(NC(=O)C(Cc1ccccc1)NC(=O)[C@H]1CCC[C@H]1NC(=O)C(Cc1ccc(OC(C)(C)C)cc1)NC(=O)OC(C)(C)C)C(N)=O` (some centres undefined) to `CC(C)(C)C1=C(Br)C(OC(=O)C(F)(F)F)(C(C)(C)C)OP1(=O)c1ccccc1` (centres undefined), the TGI rises from 30.3 µM to > 100 µM.

First: CC(=O)Nc1ccc(-c2nnc(SCC(=O)Nc3ccc(Cl)cc3)o2)cc1
Second: Cc1csc(-n2c(C)nc3cc(Cl)ccc3c2=O)n1
The TGI of the first is lower: 22.4 µM for the first, > 100 µM for the second.

`COc1ccc2c([nH]c3c(O)c(-c4c(C)cc5c([nH]c6c(CC=C(C)C)c(OC)ccc65)c4O)c(C)cc32)c1CC=C(C)C` was tested, and the TGI was > 100 µM.

What follows are compounds tested on MALME-3M melanoma (assay: DTP human tumour cell line panel, 48 h).

First: O=C(O)c1ccc(N/C(=C(/C(Cl)=C(Cl)Cl)[N+](=O)[O-])n2nnc3ccccc32)cc1
Second: CC(=O)Nc1ccc(-c2nnc(SCC(=O)Nc3ccc(Cl)cc3)o2)cc1
The TGI of the first is higher: > 100 µM for the first, 29.4 µM for the second.

`O=c1c2ccccc2nc(-c2ccccc2)n1NC(=S)Nc1cccc(Cl)c1` and `CCn1c2ccccc2c2cc(Nc3cc(C)[nH]c(=O)n3)ccc21` cannot be ordered by TGI: > 100 µM for the first, > 100 µM for the second.

`Cc1ccc(S(=NS(=O)(=O)c2ccc(C)cc2)c2ccc(C)cc2)cc1` and `Cc1ccc(S(=O)(=O)Nn2c(O)c(C#N)c(-c3ccc([N+](=O)[O-])cc3)c(C#N)c2=O)cc1` cannot be ordered by TGI: > 100 µM for the first, > 100 µM for the second.

`CCOC(=O)C(C(=O)COC(C)(C)C)[C@@H]1C=C[C@H](OC(C)=O)C1` (some centres undefined) and `CCOC(=O)CC(NC(=O)c1ccc(N=NN(C)C)cc1)C(=O)OCC` (centres undefined) cannot be ordered by TGI: > 100 µM for the first, > 100 µM for the second.

`O=c1[nH]nc(-c2ccccc2)n1-n1cnnc1` and `CC(C)(C)C1=C(Br)C(OC(=O)C(F)(F)F)(C(C)(C)C)OP1(=O)c1ccccc1` (centres undefined) cannot be ordered by TGI: > 100 µM for the first, > 100 µM for the second.

`CCCCCCCCCCCCOP(=O)(O)OP(=O)(O)OCC1OC(n2cc(C)c(=O)[nH]c2=O)CC1O` (centres undefined) and `COc1ccc2c([nH]c3c(O)c(-c4c(C)cc5c([nH]c6c(CC=C(C)C)c(OC)ccc65)c4O)c(C)cc32)c1CC=C(C)C` cannot be ordered by TGI: > 100 µM for the first, > 100 µM for the second.

Compared with `O=C1c2cc([N+](=O)[O-])sc2C(=O)c2c([N+](=O)[O-])csc21`, `N#C/C(=C\c1ccc2[nH]ccc2c1)C(=O)c1ccc(O)c(O)c1` is higher in TGI: 0.753 µM for the first, > 100 µM for the second.

Compound `CC(C)[Si](OCC1CC(C#N)OC(C)(C)O1)(C(C)C)C(C)C` (centres undefined) has a TGI of 57.6 µM.

Each compound was assayed on OVCAR-8 ovarian (assay: DTP human tumour cell line panel, 48 h).

Compared with `COCCN1C(=O)C2c3[nH]c4ccccc4c3C3CCC(C(C)(C)C)CC3C2C1=O` (centres undefined), `CCn1c2ccccc2c2cc(Nc3cc(C)[nH]c(=O)n3)ccc21` is higher in TGI: 46 µM for the first, > 100 µM for the second.

`O=C(O)c1ccc(N/C(=C(/C(Cl)=C(Cl)Cl)[N+](=O)[O-])n2nnc3ccccc32)cc1` and `O=c1c2ccccc2nc(-c2ccccc2)n1NC(=S)Nc1cccc(Cl)c1` cannot be ordered by TGI: > 100 µM for the first, > 100 µM for the second.

`C(#Cc1ccccc1)SC1=C(c2ccccc2)S/C(=C(\SC#Cc2ccccc2)c2ccccc2)S1` and `O=C(Cc1ccccc1)NN1C(=O)/C(=C\c2ccccc2O)SC1=Nc1ccccc1` cannot be ordered by TGI: > 100 µM for the first, > 100 µM for the second.

`COC(=O)c1cc(/C=C\c2cc(OC)ccc2OC)ccc1OC` and `CCOC(=O)CC(NC(=O)c1ccc(N=NN(C)C)cc1)C(=O)OCC` (centres undefined) cannot be ordered by TGI: > 100 µM for the first, > 100 µM for the second.

`Cc1ccc(S(=NS(=O)(=O)c2ccc(C)cc2)c2ccc(C)cc2)cc1` and `Cc1ccc(S(=O)(=O)Nn2c(O)c(C#N)c(-c3ccc([N+](=O)[O-])cc3)c(C#N)c2=O)cc1` cannot be ordered by TGI: > 100 µM for the first, > 100 µM for the second.

Going from `CN(C)CN(C)c1nc(N(C)C)nc(N(C)CN(C)C)n1` to `CC(C)[Si](OCC1CC(C#N)OC(C)(C)O1)(C(C)C)C(C)C` (centres undefined), the TGI falls from > 100 µM to 48 µM.

`O=c1[nH]nc(-c2ccccc2)n1-n1cnnc1` and `CCCCCCCCCCCCOP(=O)(O)OP(=O)(O)OCC1OC(n2cc(C)c(=O)[nH]c2=O)CC1O` (centres undefined) cannot be ordered by TGI: > 100 µM for the first, > 100 µM for the second.

First: O=C1c2cc([N+](=O)[O-])sc2C(=O)c2c([N+](=O)[O-])csc21
Second: CCOc1cc2c(cc1O)C(N)C[C@@H]1[C@@H]2CC[C@]2(C)[C@@H](O)CC[C@@H]12 (some centres undefined)
The TGI of the first is lower: 3.04 µM for the first, > 100 µM for the second.
